# Measurements reported in patent US5725871A, “Drug delivery compositions comprising lysophosphoglycerolipid” (Danbiosyst UK Limited, priority 1989, dated 1998).
# Conditions: sheep, intranasal 2.0 IU/kg insulin, LPG versus LPC
# Protocol: The sheep were divided into 4 groups of 5 animals each. Group 1 received 2.0 IU/kg insulin together with 2.0 mg/kg SMS 45/25 microspheres (Pharmacia) and 0.2 mg/kg LPC (Formulation 1) intranasally in the form of a lyophilised powder. A sheep of 50 kg thus received 100 IU of insulin together with 100 mg SMS 45/25 microspheres and 10.0 mg LPC. Group 2 received 2.0 IU/kg insulin together with 2.0 mg/kg SMS 45/25 microspheres and 0.2 mg/kg LPG Formulation 2) intranasally in the form of a lyophilised powder. A sheep of 50 kg thus received 100 IU of insulin together with 100 mg SMS 45/25 microspheres and 10.0 mg LPG. Group 3 received 2.0 IU/kg insulin together with 0.02 mg/kg LPC (Formulation 3) intranasally in the form of a solution at 0.01 ml/kg. A sheep of 50 kg thus received 100 IU of insulin together with 1.0 mg LPC in a volume of 0.5 ml. Group 4 received 2.0 IU/kg insulin together with 0.02 mg/kg LPG (Formulation 4) intranasally in the form of a solution at 0.01 ml/kg. A sheep of 50 kg thus received 100 IU of insulin together with 1.0 mg LPG in a volume of 0.5 ml. […]
# Sedation/Blood Sampling: For the intranasal studies, the sheep were sedated by use of an i.v. dose of ketamine hydrochloride (Ketalar (Regd. T.M.), 100 mg/ml injection) at 2.25 mg/kg. […] Each blood sample was divided into two parts and analysed as in Example 1.
substance,measurement,value
L-α-lysophosphatidyl-DL-glycerol [LPG],Plasma glucose levels,lower (i.e. better) with LPG
